In ChEMBL document CHEMBL5385881, “Design, synthesis, and discovery of Eudistomin Y derivatives as lysosome-targeted antiproliferation agents” (Eur J Med Chem, 2023):
Calls of active or inactive are those of the source. The calls are words filed in the database; no cut-off is given here.

Key:
LS180 = assay: Cytotoxicity against human LS180 cells assessed as cell inhibition measured after 72 hrs by MTT assay; assay type: functional, cell-based; conditions: LS180, 72 h
A549 = assay: Cytotoxicity against human A549 cells assessed as cell inhibition measured after 72 hrs by MTT assay; assay type: functional, cell-based; conditions: A549, 72 h
MDA-MB-231 [1] = assay: Cytotoxicity against human MDA-MB-231 cells assessed as cell inhibition measured after 72 hrs by MTT assay; assay type: functional, cell-based; conditions: MDA-MB-231, 72 h
SGC-7901 [2] = assay: Cytotoxicity against human SGC-7901 cells assessed as cell inhibition measured after 72 hrs by MTT assay; assay type: functional, cell-based; conditions: SGC-7901, 72 h
MDA-MB-231 [3] = assay: Induction of cell cycle arrest in human MDA-MB-231 cells assessed as accumulation of cells at G0/G1 phase at 5 uM incubated for 24 hrs by PI staining based flow cytometric analysis (reference value: 62.73%); assay type: functional
SGC-7901 [4] = assay: Induction of cell cycle arrest in human SGC-7901 cells assessed as accumulation of cells at G0/G1 phase at 5 uM incubated for 24 hrs by PI staining based flow cytometric analysis (reference value: 59.67%); assay type: functional
SGC-7901 [5] = assay: Induction of cell cycle arrest in human SGC-7901 cells assessed as accumulation of cells at G0/G1 phase at 20 uM incubated for 24 hrs by PI staining based flow cytometric analysis (reference value: 59.67%); assay type: functional
[6] = Reduction in Cyclin B1 level in human MDA-MB-231 cells assessed as fold change at 5 uM measured after 72 hrs by Western blot analysis relative to control; assay type: functional
[7] = Drug uptake in human MDA-MB-231 cells assessed as accumulation by measuring lysosome-specific fluorescent signals at 2 uM incubated for 1 hrs by confocal laser-scanning microscopic analysis; assay type: ADME, cell-based; conditions: mda-mb-231, 1 h
MDA-MB-231 [8] = assay: Antiproliferative activity against human MDA-MB-231 cells assessed as cell viability in presence of 3-MA at 10 to 50 uM measured after 72 hrs by MTT assay; assay type: functional, cell-based; conditions: dose 10-50 µM
SGC-7901 [9] = assay: Induction of cell cycle arrest in human SGC-7901 cells assessed as accumulation of cells at G2/M phase at 10 uM incubated for 24 hrs by PI staining based flow cytometric analysis (reference value: 0.18%); assay type: functional
[10] = Reduction in Cyclin B1 level in human MDA-MB-231 cells assessed as fold change at 15 uM measured after 72 hrs by Western blot analysis relative to control; assay type: functional
[11] = Reduction in Cyclin B1 level in human MDA-MB-231 cells assessed as fold change at 10 uM measured after 72 hrs by Western blot analysis relative to control; assay type: functional
MDA-MB-231 [12] = assay: Induction of autophagy in human MDA-MB-231 cells assessed as fold increase in Lamp1 level at 15 uM measured after 6 hrs by Western blot analysis relative to control; assay type: functional
SGC-7901 [13] = assay: Induction of cell cycle arrest in human SGC-7901 cells assessed as accumulation of cells at G2/M phase at 50 uM incubated for 24 hrs by PI staining based flow cytometric analysis (reference value: 0.18%); assay type: functional
MDA-MB-231 [14] = assay: Induction of autophagy in human MDA-MB-231 cells assessed as fold increase in Lamp1 level at 10 uM measured after 6 hrs by Western blot analysis relative to control; assay type: functional
SGC-7901 [15] = assay: Induction of cell cycle arrest in human SGC-7901 cells assessed as accumulation of cells at G2/M phase at 5 uM incubated for 24 hrs by PI staining based flow cytometric analysis (reference value: 0.18%); assay type: functional
[16] = Reduction in CDK1 level in human MDA-MB-231 cells assessed as fold change in presence of 3-MA at 15 uM measured after 72 hrs by Western blot analysis relative to control; assay type: functional
MDA-MB-231 [17] = assay: Induction of cell cycle arrest in human MDA-MB-231 cells assessed as accumulation of cells at G2/M phase at 10 uM incubated for 24 hrs by PI staining based flow cytometric analysis (reference value: 7.47%); assay type: functional
SGC-7901 [18] = assay: Induction of cell cycle arrest in human SGC-7901 cells assessed as accumulation of cells at S phase at 10 uM incubated for 24 hrs by PI staining based flow cytometric analysis (reference value: 40.15%); assay type: functional
MDA-MB-231 [19] = assay: Induction of cell cycle arrest in human MDA-MB-231 cells assessed as accumulation of cells at S phase at 50 uM incubated for 24 hrs by PI staining based flow cytometric analysis (reference value: 29.80%); assay type: functional
[20] = Reduction in CDK1 level in human MDA-MB-231 cells assessed as fold change at 5 uM measured after 72 hrs by Western blot analysis relative to control; assay type: functional
MDA-MB-231 [21] = assay: Induction of cell cycle arrest in human MDA-MB-231 cells assessed as accumulation of cells at G2/M phase at 50 uM incubated for 24 hrs by PI staining based flow cytometric analysis (reference value: 7.47%); assay type: functional
MDA-MB-231 [22] = assay: Induction of autophagy in human MDA-MB-231 cells assessed as increase in lysosomal membrane permeabilization by measuring red fluorescence in cytoplasm at 10 to 20 uM measured after 24 hrs by acridine orange (AO) staining assay; assay type: functional, cell-based; conditions: dose 10-20 µM
SGC-7901 [23] = assay: Induction of cell cycle arrest in human SGC-7901 cells assessed as accumulation of cells at G0/G1 phase at 50 uM incubated for 24 hrs by PI staining based flow cytometric analysis (reference value: 59.67%); assay type: functional
SGC-7901 [24] = assay: Induction of cell cycle arrest in human SGC-7901 cells assessed as accumulation of cells at S phase at 5 uM incubated for 24 hrs by PI staining based flow cytometric analysis (reference value: 40.15%); assay type: functional
SGC-7901 [25] = assay: Induction of cell cycle arrest in human SGC-7901 cells assessed as accumulation of cells at G2/M phase at 20 uM incubated for 24 hrs by PI staining based flow cytometric analysis (reference value: 0.18%); assay type: functional
MDA-MB-231 [26] = assay: Induction of autophagy in human MDA-MB-231 cells assessed as increase in acidic vesicle formation by measuring fluorescence signal from lyso-red Tracker at 10 to 20 uM measured after 24 hrs by Lyso-RedTracker staining based confocal laser-scanning microscopic analysis; assay type: functional, cell-based; conditions: dose 10-20 µM
MDA-MB-231 [27] = assay: Induction of autophagy in human MDA-MB-231 cells assessed as fold increase in LC3I/II protein level at 5 uM measured after 6 hrs by Western blot analysis relative to control; assay type: functional
[28] = Drug uptake in human MDA-MB-231 cells assessed as accumulation by measuring lysosome-specific fluorescent signals in presence of excess eudistomin Y1 at 1 uM incubated for 1 hrs by confocal laser-scanning microscopic analysis; assay type: ADME, cell-based; conditions: mda-mb-231, 1 h
[29] = Drug uptake in human MDA-MB-231 cells assessed as accumulation by measuring fluorescent signals at 1 uM incubated for 1 hrs by confocal laser-scanning microscopic analysis; assay type: ADME, cell-based; conditions: mda-mb-231, 1 h
MDA-MB-231 [30] = assay: Induction of cell cycle arrest in human MDA-MB-231 cells assessed as accumulation of cells at G0/G1 phase at 50 uM incubated for 24 hrs by PI staining based flow cytometric analysis (reference value: 62.73%); assay type: functional
SGC-7901 [31] = assay: Induction of cell cycle arrest in human SGC-7901 cells assessed as accumulation of cells at G0/G1 phase at 10 uM incubated for 24 hrs by PI staining based flow cytometric analysis (reference value: 59.67%); assay type: functional
MDA-MB-231 [32] = assay: Induction of autophagy in human MDA-MB-231 cells assessed as fold increase in Lamp1 level at 5 uM measured after 6 hrs by Western blot analysis relative to control; assay type: functional
[33] = Reduction in CDK1 level in human MDA-MB-231 cells assessed as fold change at 10 uM measured after 72 hrs by Western blot analysis relative to control; assay type: functional
MDA-MB-231 [34] = assay: Induction of autophagy in human MDA-MB-231 cells assessed as fold increase in LC3I/II protein level at 15 uM measured after 6 hrs by Western blot analysis relative to control; assay type: functional
MDA-MB-231 [35] = assay: Induction of autophagy in human MDA-MB-231 cells assessed as fold increase in LC3I/II protein level at 10 uM measured after 6 hrs by Western blot analysis relative to control; assay type: functional
SGC-7901 [36] = assay: Induction of cell cycle arrest in human SGC-7901 cells assessed as accumulation of cells at S phase at 20 uM incubated for 24 hrs by PI staining based flow cytometric analysis (reference value: 40.15%); assay type: functional
MDA-MB-231 [37] = assay: Induction of cell cycle arrest in human MDA-MB-231 cells assessed as accumulation of cells at G0/G1 phase at 20 uM incubated for 24 hrs by PI staining based flow cytometric analysis (reference value: 62.73%); assay type: functional
MDA-MB-231 [38] = assay: Induction of cell cycle arrest in human MDA-MB-231 cells assessed as accumulation of cells at G2/M phase at 5 uM incubated for 24 hrs by PI staining based flow cytometric analysis (reference value: 7.47%); assay type: functional
[39] = Reduction in Cyclin B1 level in human MDA-MB-231 cells assessed as fold change in presence of 3-MA at 15 uM measured after 72 hrs by Western blot analysis relative to control; assay type: functional
MDA-MB-231 [40] = assay: Induction of cell cycle arrest in human MDA-MB-231 cells assessed as accumulation of cells at S phase at 20 uM incubated for 24 hrs by PI staining based flow cytometric analysis (reference value: 29.80%); assay type: functional
MDA-MB-231 [41] = assay: Induction of cell cycle arrest in human MDA-MB-231 cells assessed as accumulation of cells at S phase at 5 uM incubated for 24 hrs by PI staining based flow cytometric analysis (reference value: 29.80%); assay type: functional
HepG2 = assay: Cytotoxicity against human HepG2 cells assessed as cell inhibition measured after 72 hrs by MTT assay; assay type: functional, cell-based; conditions: HepG2, 72 h
[42] = Reduction in CDK1 level in human MDA-MB-231 cells assessed as fold change at 15 uM measured after 72 hrs by Western blot analysis relative to control; assay type: functional
MDA-MB-231 [43] = assay: Induction of cell cycle arrest in human MDA-MB-231 cells assessed as accumulation of cells at G2/M phase at 20 uM incubated for 24 hrs by PI staining based flow cytometric analysis (reference value: 7.47%); assay type: functional
MDA-MB-231 [44] = assay: Induction of cell cycle arrest in human MDA-MB-231 cells assessed as accumulation of cells at S phase at 10 uM incubated for 24 hrs by PI staining based flow cytometric analysis (reference value: 29.80%); assay type: functional
SGC-7901 [45] = assay: Induction of cell cycle arrest in human SGC-7901 cells assessed as accumulation of cells at S phase at 50 uM incubated for 24 hrs by PI staining based flow cytometric analysis (reference value: 40.15%); assay type: functional
MDA-MB-231 [46] = assay: Induction of cell cycle arrest in human MDA-MB-231 cells assessed as accumulation of cells at G0/G1 phase at 10 uM incubated for 24 hrs by PI staining based flow cytometric analysis (reference value: 62.73%); assay type: functional

SMILES: O=c1[nH]cc(F)c(=O)[nH]1 [FLUOROURACIL]
- IC50 (LS180): 3.4 µM
- IC50 (A549): 1.3 µM
- IC50 (MDA-MB-231 [1]): 67.5 µM
- IC50 (SGC-7901 [2]): 13.1 µM

SMILES: COc1ccc(Cn2c3ccccc3c3ccnc(C(=O)c4ccccc4)c32)cc1
- Activity (MDA-MB-231 [3]): 64.23%
- Activity (SGC-7901 [4]): 41.36%
- Activity (SGC-7901 [5]): 6.9%
- fold change (FC) [6]: 1.01
- Drug uptake [7]: Active
- Activity (MDA-MB-231 [8]): inactive
- Activity (SGC-7901 [9]): 56.48%
- fold change (FC) [10]: 0.66
- IC50 (LS180): 2.9 µM
- fold change (FC) [11]: 0.98
- fold change (FC) (MDA-MB-231 [12]): 1.39
- Activity (SGC-7901 [13]): 50.5%
- fold change (FC) (MDA-MB-231 [14]): 1.21
- Activity (SGC-7901 [15]): 18.43%
- fold change (FC) [16]: 0.78
- IC50 (A549): 14.8 µM
- Activity (MDA-MB-231 [17]): 18.53%
- Activity (SGC-7901 [18]): 35.51%
- Activity (MDA-MB-231 [19]): 11.55%
- fold change (FC) [20]: 0.78
- Activity (MDA-MB-231 [21]): 75.93%
- Activity (MDA-MB-231 [22]): Active
- Activity (SGC-7901 [23]): 4.23%
- Activity (SGC-7901 [24]): 40.21%
- Activity (SGC-7901 [25]): 60.49%
- Activity (MDA-MB-231 [26]): Active
- fold change (FC) (MDA-MB-231 [27]): 1.12
- Drug uptake [28]: Not Active
- Drug uptake [29]: Active
- Activity (MDA-MB-231 [30]): 12.51%
- Activity (SGC-7901 [31]): 8%
- fold change (FC) (MDA-MB-231 [32]): 1.04
- fold change (FC) [33]: 0.52
- fold change (FC) (MDA-MB-231 [34]): 1.51
- fold change (FC) (MDA-MB-231 [35]): 1.39
- Activity (SGC-7901 [36]): 32.61%
- Activity (MDA-MB-231 [37]): 29.13%
- Activity (MDA-MB-231 [38]): 14.71%
- fold change (FC) [39]: 0.8
- Activity (MDA-MB-231 [40]): 22.49%
- IC50 (MDA-MB-231 [1]): 20.5 µM
- Activity (MDA-MB-231 [41]): 21.05%
- IC50 (HepG2): 9.6 µM
- fold change (FC) [42]: 0.5
- Activity (MDA-MB-231 [43]): 48.37%
- IC50 (SGC-7901 [2]): 12.1 µM
- Activity (MDA-MB-231 [44]): 31.51%
- Activity (SGC-7901 [45]): 45.27%
- Activity (MDA-MB-231 [46]): 49.96%

SMILES: O=C(c1ccccc1)c1nccc2c1[nH]c1ccccc12
- IC50 (LS180): 258 µM
- IC50 (A549): 74.3 µM
- IC50 (MDA-MB-231 [1]): 66.1 µM
- IC50 (HepG2): 244 µM
- IC50 (SGC-7901 [2]): 345 µM
